Measured values from patent US9850183B2, “Conjugates derived from non-steroidal anti-inflammatory drugs and methods of use thereof in imaging” (Reiley Pharmaceuticals, Inc., priority 2014, dated 2017).
Where two headings read alike, the source gives them in different places.

Legend:
[1] = biological target: T1, COX-2 (Mus musculus, UniProt Q05769); assay: Cell-based COX-2 assay (PGE2 in LPS/IFN-g stimulated RAW264.7 cells); details: RAW264.7 murine macrophages, 1 μg/ml LPS and 10 U/ml IFN-g for 7 h, PGE2 readout
T1 construct: endogenous in cells; host or cells: RAW264.7 murine macrophages, stimulated with LPS and IFN-g
T1 sequence (Q05769 18-604): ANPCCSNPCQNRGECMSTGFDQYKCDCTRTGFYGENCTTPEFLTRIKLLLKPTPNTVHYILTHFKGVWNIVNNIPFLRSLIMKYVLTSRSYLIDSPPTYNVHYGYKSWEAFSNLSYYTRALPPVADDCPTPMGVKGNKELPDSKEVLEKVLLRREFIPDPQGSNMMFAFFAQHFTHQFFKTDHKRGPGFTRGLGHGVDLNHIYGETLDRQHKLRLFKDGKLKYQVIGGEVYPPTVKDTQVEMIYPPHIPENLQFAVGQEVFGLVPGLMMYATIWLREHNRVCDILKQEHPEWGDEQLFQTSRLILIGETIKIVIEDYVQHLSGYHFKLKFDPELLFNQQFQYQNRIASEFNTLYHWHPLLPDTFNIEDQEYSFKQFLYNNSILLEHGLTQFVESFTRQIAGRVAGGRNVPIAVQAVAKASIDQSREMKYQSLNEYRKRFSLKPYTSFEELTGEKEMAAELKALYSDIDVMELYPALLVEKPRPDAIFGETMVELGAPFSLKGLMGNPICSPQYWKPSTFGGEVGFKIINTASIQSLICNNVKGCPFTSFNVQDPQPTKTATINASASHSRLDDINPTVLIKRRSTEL
Experimental: RAW264.7 murine macrophages were obtained from the Cell Bank of Shanghai Institute of Biochemistry and Cell Biology, Chinese Academy of Sciences (Shanghai, China) and cultured in Dulbecco's modified Eagle's medium containing 100 U/ml penicillin and 100 μg/ml streptomycin at 37° C. in 5% CO2.
RAW264.7 cells were plated at a density of 2.5×10^5/ml cells in a 96-well plate with 0.1 ml of culture medium per well and cultured overnight. The cells were pre-incubated for 30 min with various doses of compounds and stimulated for 7 h with 1 μg/ml LPS and 10 U/ml IFN-g. The cell culture supernatants were collected immediately following treatment and centrifuged at 1,000 rpm for 5 min to remove the particulate matter. PGE2 was determined using a Prostaglandin E2 assay kit (catalog no. 62P2APEB; Cisbio Co.,). 10 μL of cell supernatant was transferred to a 384-well low volume plate (e.g. Corning® 3544), 5 μL of PGE2-d2 was added, followed by 5 μL anti-PGE2 Cryptate as a negative control. Replace the standard by 10 μL of diluent and PGE2-d2 by 5 μL of reconstitution buffer, Cal0 (for positive control), replace the standard by 10 μL of diluent. Incubate at 4° C. overnight. After centrifuging at 1,000 rpm for 1 min, the dual fluorescence emissions of 615 and 665 nm with a 320 nm excitation were measured using an Envision plate reader (Perkin Elmer, Shelton, Conn.). The results are expressed as the ratio of 665 nm/615 nm emissions.
(§1) Dose-response curves were generated using XLFit (IDBS, Surrey, UK) or Prism (GraphPad Software, La Jolla, Calif., US) to calculate IC50 values for each compound tested.

[2] = biological target: T2, human COX-2 (Homo sapiens, UniProt P35354); assay: COX-2 enzyme assay (EIA kit, PGF2α readout); assay type: biochemical
T2 construct: purchased Cayman Chemical Co., Ann Arbor, Mich., USA 701080
T2 sequence (P35354 18-604): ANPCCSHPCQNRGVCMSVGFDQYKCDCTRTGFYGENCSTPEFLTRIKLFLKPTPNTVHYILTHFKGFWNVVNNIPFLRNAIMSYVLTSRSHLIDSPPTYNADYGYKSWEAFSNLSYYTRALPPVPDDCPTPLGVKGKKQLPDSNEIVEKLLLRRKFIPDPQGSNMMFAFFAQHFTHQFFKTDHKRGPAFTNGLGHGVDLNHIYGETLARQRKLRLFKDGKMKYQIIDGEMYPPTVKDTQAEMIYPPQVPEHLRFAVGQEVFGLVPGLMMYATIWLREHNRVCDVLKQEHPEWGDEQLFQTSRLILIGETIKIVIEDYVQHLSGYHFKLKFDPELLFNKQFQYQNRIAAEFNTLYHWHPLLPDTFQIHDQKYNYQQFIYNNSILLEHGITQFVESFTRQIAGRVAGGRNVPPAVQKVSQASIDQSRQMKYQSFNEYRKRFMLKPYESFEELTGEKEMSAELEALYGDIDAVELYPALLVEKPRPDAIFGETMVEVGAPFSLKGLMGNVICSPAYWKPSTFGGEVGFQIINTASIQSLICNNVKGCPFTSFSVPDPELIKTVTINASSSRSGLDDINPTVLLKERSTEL
Experimental: The ability of compounds to inhibit ovine COX-1 and human COX-2 was determined using a commercially available enzyme immunoassay (EIA) kit (catalog no. 701090 (COX-1); 701080 (COX-2) Cayman Chemical Co., Ann Arbor, Mich., USA) according to the manufacturer's protocol. COX catalyzes the first step in the biosynthesis of AA to PGH2. PGF2α, produced from PGH2 by reduction with stannous chloride, was measured by EIA (ACE™ competitive EIA, Cayman Chemical, Ann Arbor, Mich., USA). Briefly, to a series of supplied reaction buffer solutions [960 μl 0.1 M Tris-HCl (pH 8.0) containing 5 mM EDTA and 2 mM phenol] with either COX-1 or COX-2 (10 μl) enzyme in the presence of heme (10 μl), 10 μl of various concentrations of test drug solutions were added. These solutions were incubated for 15 min at 37° C. and subsequently 10 μl AA solution (100 μM) was added. The COX reaction was stopped by the addition of 30 μl stannus chloride after 2 min, mixed immediately, supernatants were 2000 fold diluted. The produced PGF2α was measured by EIA. This assay is based on the competition between PGs and a PG-acetylcholinesterase conjugate (PG tracer) for a limited amount of PG antiserum. The amount of PG tracer that is able to bind to the PG antiserum is inversely proportional to the concentration of PGs in the wells since the concentration of the PG tracer is held at a constant while the concentration of PGs varies. The specific antiserum-PG complex bound to a mouse anti-rabbit IgG that had been previously attached to the well. The plate was washed to remove any unbound reagents and 200 μl Ellman's reagent (5,5′-dithiobis-(2-nitrobenzoic acid), which contains the substrate to acetylcholine esterase, was added to the well. The product of this enzymatic reaction generates a distinct yellow color that absorbs at 406 nm. The intensity of this color, determined by spectrophotometry, is proportional to the amount of PG tracer bound to the well, which is inversely proportional to the amount of PGs present in the well during the incubation. Percent inhibition was calculated by the comparison of the compounds treated to the various control incubations.
as §1

[3] = human COX-2 enzyme, EIA, 15 min pre-incubation at 37° C., read-out: COX-2 IC50 (μM) enzyme

Row | SMILES | IC50 [1] [µM] | IC50 [2, 3] [µM] | IC50 [2] [µM]
1 | COc1ccc2c(c1)c(CC(=O)NCCOCCOCCOCCNC(=O)[c-]1cccc1)c(C)n2C(=O)c1ccc(Cl)cc1.[C-]#[O+].[C-]#[O+].[C-]#[O+].[Re+] [Compound 248] | > 30 | 0.2 | –
2 | COc1ccc2c(c1)c(CC(=O)NCCC=CCC[N+]13CC[S][Re-]14(=[O])[S]CC[N]4C(=O)C3)c(C)n2C(=O)c1ccc(Cl)cc1 (stereo not shown) [Compound 341] | 0.3 | 0.8 | –
3 | COc1ccc2c(c1)c(CC(=O)NCCCCCC(C)(C)NC(=O)c1ccc[cH-]1)c(C)n2C(=O)c1ccc(Cl)cc1.[C-]#[O+].[C-]#[O+].[C-]#[O+].[Re+] [Compound 313] | 0.2 | – | –
4 | COc1ccc2c(c1)c(CC(=O)NCCCCNC(=O)C[N]1C(=O)C[N]3C(=O)C[N]4C(=O)C[S][Re]143=[O])c(C)n2C(=O)c1ccc(Cl)cc1 [Compound 23] | – | 12 | –
5 | COc1ccc2c(c1)c(CC(=O)NCCCCC(C)(C)NC(=O)c1ccc[cH-]1)c(C)n2C(=O)c1ccc(Cl)cc1.[C-]#[O+].[C-]#[O+].[C-]#[O+].[Re+] [Compound 312] | 0.4 | 0.1 | –
6 | CCOC(=O)C1C[S][Re]23(=[O])[S]CC(C(=O)NCCOCCOCCNC(=O)Cc4c(C)n(C(=O)c5ccc(Cl)cc5)c5ccc(OC)cc45)[N]2CC[N]13 (stereo not shown) [Compound 178] | 1.8 | 0.2 | –
7 | CCOC(=O)C1C[S][Re]23(=[O])[S]CC(C(=O)NCCCCCCCCNC(=O)Cc4c(C)n(C(=O)c5ccc(Cl)cc5)c5ccc(OC)cc45)[N]2CC[N]13 (stereo not shown) [Compound 183] | 0.7 | 0.4 | –
8 | NS(=O)(=O)c1ccc(-n2nc(CNC(=O)c3ccc[cH-]3)cc2-c2ccc(F)cc2)cc1.[C-]#[O+].[C-]#[O+].[C-]#[O+].[Re+] [Compound 365] | 1.1 | 7.9 | –
9 | COc1ccc2c(c1)c(CCNC(=O)CCCCC[N+]13CC[S][Re-]14(=[O])[S]CC[N]4C(=O)C3)c(C)n2C(=O)c1ccc(Cl)cc1 (stereo not shown) [Compound 359] | 0.2 | 0.6 | –
10 | COc1ccc2c(c1)c(CC(=O)NCCCCCCNC(=O)C1C[S][Re]34(=[O])[S]CC(C(=O)OC(C)C)[N]3CC[N]14)c(C)n2C(=O)c1ccc(Cl)cc1 (stereo not shown) [Compound 185] | 0.5 | 1.2 | –
11 | COc1ccc2c(c1)c(CC(=O)NCCOCCNC(=O)[c-]1cccc1)c(C)n2C(=O)c1ccc(Cl)cc1.[C-]#[O+].[C-]#[O+].[C-]#[O+].[Re+] [Compound 244] | 1.5 | > 30 | –
12 | COc1ccc2c(c1)c(CC(=O)NCCCS(=O)(=O)CCC[N+]13CC[S][Re-]14(=[O])[S]CC[N]4C(=O)C3)c(C)n2C(=O)c1ccc(Cl)cc1 (stereo not shown) [Compound 268] | > 10 | > 30 | –
13 | NS(=O)(=O)c1ccc(-n2nc(CNC(=O)CCCCC[N+]34CC[S][Re-]35(=[O])[S]CC[N]5C(=O)C4)cc2-c2ccc(F)cc2)cc1 (stereo not shown) [Compound 367] | > 10 | – | 4.5
14 | COc1ccc2c(c1)c(CC(=O)NCc1ccc(CNC(=O)[c-]3cccc3)cc1)c(C)n2C(=O)c1ccc(Cl)cc1.[C-]#[O+].[C-]#[O+].[C-]#[O+].[Re+] [Compound 249] | 4.4 | 1.1 | –
15 | Cc1c(CC(=O)O)c2cc(OCCCCCCNC(=O)C[N]3C(=O)C[N]4C(=O)C[N]5C(=O)C[S][Re]354=[O])ccc2n1C(=O)c1ccc(Cl)cc1 [Compound 39] | – | – | 1.1
16 | COc1ccc2c(c1)c(CCNC(=O)CC[N+]13CC[S][Re-]14(=[O])[S]CC[N]4C(=O)C3)c(C)n2C(=O)c1ccc(Cl)cc1 (stereo not shown) [Compound 356] | 1.6 | – | –
17 | COc1ccc2c(c1)c(CC(=O)NCCCC(C)(C)NC(=O)c1ccc[cH-]1)c(C)n2C(=O)c1ccc(Cl)cc1.[C-]#[O+].[C-]#[O+].[C-]#[O+].[Re+] [Compound 311] | 0.4 | – | –
18 | Cc1c(CC(=O)O)c2cc(OCCCCNC(=O)C[N]3C(=O)C[N]4C(=O)C[N]5C(=O)C[S][Re]354=[O])ccc2n1C(=O)c1ccc(Cl)cc1 [Compound 35] | – | – | 1.6
19 | COc1ccc2c(c1)c(CC(=O)NCCCNCCC[N+]13CC[S][Re-]14(=[O])[S]CC[N]4C(=O)C3)c(C)n2C(=O)c1ccc(Cl)cc1 (stereo not shown) [Compound 320] | 5 | – | –
